Read-outs that look alike come from different tables or passages of the source.
What was measured:
[1] = target: T1, G9a (913-1913) (Homo sapiens, UniProt Q96KQ7); test: Filter-paper methylation assay, G9a; assay type: biochemical; settings: 20 nM enzyme, H3 (1-21 aa) peptide, 1 h
T1 construct: G9a (913-1913)

[2] = target: T2, GLP1 (951-1235) (Homo sapiens, UniProt Q9H9B1); test: biochemical; settings: 10 nM enzyme, H3 (1-21 aa) peptide, 1 h
T2 sequence (Q9H9B1 982-1266 limits assumed): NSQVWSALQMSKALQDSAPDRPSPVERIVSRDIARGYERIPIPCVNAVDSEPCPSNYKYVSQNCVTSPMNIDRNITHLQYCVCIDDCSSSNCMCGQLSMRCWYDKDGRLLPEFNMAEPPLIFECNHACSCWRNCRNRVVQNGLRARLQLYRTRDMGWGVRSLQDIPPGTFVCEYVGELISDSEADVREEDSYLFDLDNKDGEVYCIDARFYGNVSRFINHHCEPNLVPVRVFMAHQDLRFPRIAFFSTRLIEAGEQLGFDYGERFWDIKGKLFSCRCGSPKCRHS

[3] = target: T3, SET7/9 Full-length (Homo sapiens, UniProt Q8WTS6); test: Filter-paper methylation assay, SET7/9; assay type: biochemical; settings: 150 nM enzyme, H3 (1-21 aa) peptide, 3 h
T3 construct: SET7/9 Full-length
T3 sequence (Q8WTS6 1-366): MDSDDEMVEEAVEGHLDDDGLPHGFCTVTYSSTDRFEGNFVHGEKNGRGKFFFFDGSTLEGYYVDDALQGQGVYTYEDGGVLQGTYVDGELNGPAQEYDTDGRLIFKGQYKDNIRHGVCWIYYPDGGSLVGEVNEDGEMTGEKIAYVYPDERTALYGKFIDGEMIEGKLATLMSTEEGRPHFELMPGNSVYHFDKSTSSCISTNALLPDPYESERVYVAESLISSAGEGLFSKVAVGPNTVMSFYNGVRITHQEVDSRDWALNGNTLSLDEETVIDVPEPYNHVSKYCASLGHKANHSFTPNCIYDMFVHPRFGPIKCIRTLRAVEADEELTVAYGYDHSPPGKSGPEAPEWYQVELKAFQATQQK

[4] = target: T4, SET8 (191-352) (Homo sapiens, UniProt Q9NQR1); test: Filter-paper methylation assay, SET8; assay type: biochemical; settings: 1000 nM enzyme, H4 (10-30 aa) peptide, 8 h
T4 construct: SET8 (191-352)
T4 sequence (Q9NQR1 191-352 isoform Q9NQR1-2): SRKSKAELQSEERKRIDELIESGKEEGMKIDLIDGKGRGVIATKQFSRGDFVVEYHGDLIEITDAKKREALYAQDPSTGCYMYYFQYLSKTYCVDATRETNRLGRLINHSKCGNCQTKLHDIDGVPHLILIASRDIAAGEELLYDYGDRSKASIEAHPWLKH

[5] = target: T5, SETD2 (1347-1711) (Homo sapiens, UniProt Q9BYW2); test: Filter-paper methylation assay, SETD2; assay type: biochemical; settings: 250 nM enzyme, H3 (20-50 aa) peptide, 4 h
T5 construct: SETD2 (1347-1711)
T5 sequence (Q9BYW2 1347-1711): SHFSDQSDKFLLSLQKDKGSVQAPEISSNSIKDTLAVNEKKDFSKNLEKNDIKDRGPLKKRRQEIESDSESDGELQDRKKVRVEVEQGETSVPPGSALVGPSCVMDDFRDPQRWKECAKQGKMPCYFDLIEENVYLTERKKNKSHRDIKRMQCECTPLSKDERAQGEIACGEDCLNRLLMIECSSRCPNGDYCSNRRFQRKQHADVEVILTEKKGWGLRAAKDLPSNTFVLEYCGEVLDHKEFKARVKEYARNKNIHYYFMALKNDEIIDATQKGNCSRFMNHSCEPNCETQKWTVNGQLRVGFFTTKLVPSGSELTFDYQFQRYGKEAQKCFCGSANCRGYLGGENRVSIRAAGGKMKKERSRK

[6] = target: T6, PRMT1 (10-352) (Homo sapiens, UniProt Q99873); test: Filter-paper methylation assay, PRMT1; assay type: biochemical; settings: 100 nM enzyme, RGG peptide, 1.5 h
T6 construct: PRMT1 (10-352)

[7] = target: T7, PRMT3 (211-531) (Homo sapiens, UniProt O60678); test: Filter-paper methylation assay, PRMT3; assay type: biochemical; settings: 100 nM enzyme, RGG peptide, 3 h
T7 construct: PRMT3 (211-531)

[8] = target: T8, SUV39H2 (112-410) (Homo sapiens, UniProt Q9H5I1); test: Filter-paper methylation assay, SUV39H2; assay type: biochemical; settings: 5 nM enzyme, H3 (1-21 aa) peptide, 4 h
T8 construct: SUV39H2 (112-410)

[9] = target: T9, CARM1 (19-608) (Homo sapiens, UniProt Q86X55); test: Filter-paper methylation assay, CARM1; assay type: biochemical; settings: for selectivity for CARM1 inhibition: among the subset of PMTs screened
T9 construct: CARM1 (19-608)
T9 sequence (Q86X55 19-608): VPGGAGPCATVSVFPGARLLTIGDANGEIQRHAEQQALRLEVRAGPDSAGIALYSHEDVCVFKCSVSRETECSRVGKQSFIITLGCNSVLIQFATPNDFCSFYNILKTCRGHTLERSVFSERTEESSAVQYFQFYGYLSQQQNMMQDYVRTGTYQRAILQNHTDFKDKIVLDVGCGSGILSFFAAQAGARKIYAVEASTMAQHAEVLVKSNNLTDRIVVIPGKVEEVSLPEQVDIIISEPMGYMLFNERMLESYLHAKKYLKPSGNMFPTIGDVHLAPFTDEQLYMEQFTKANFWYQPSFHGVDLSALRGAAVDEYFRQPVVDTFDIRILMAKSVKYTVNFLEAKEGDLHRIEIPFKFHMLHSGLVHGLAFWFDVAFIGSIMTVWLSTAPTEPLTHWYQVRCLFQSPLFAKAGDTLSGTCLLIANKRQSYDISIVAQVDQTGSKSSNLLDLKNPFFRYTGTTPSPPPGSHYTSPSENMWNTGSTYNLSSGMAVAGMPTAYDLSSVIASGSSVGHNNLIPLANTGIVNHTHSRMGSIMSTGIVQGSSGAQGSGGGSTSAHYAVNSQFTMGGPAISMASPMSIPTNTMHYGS

[10] = target: T10, SMYD2 Full-length (Homo sapiens, UniProt Q9NRG4); test: Filter-paper methylation assay, SMYD2; assay type: biochemical; settings: 50 nM enzyme, p53 (360-393 aa) peptide, 10 h; read-out: IC50 SMYD2-FL
T10 construct: SMYD2 Full-length

[11] = tested on: histone 3 lysine 36 tri-methyl; test: Cellular assay, histone methylation in HEK-293T cells; assay type: cell-based; settings: "in vivo", up to 100 μM, 24 h, H3K36 tri-methyl blot

T8 sequence (Q9H5I1 112-410): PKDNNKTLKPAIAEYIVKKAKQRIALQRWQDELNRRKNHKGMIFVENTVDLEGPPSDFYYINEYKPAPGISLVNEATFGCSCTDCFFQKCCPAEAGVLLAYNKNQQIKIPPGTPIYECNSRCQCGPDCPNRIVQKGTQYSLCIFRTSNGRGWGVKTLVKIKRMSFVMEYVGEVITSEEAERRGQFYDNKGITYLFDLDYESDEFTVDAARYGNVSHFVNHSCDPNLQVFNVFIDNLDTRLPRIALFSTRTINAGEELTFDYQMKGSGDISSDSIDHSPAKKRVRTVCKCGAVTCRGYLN
T6 sequence (Q99873 10-352 isoform Q99873-3, species assumed): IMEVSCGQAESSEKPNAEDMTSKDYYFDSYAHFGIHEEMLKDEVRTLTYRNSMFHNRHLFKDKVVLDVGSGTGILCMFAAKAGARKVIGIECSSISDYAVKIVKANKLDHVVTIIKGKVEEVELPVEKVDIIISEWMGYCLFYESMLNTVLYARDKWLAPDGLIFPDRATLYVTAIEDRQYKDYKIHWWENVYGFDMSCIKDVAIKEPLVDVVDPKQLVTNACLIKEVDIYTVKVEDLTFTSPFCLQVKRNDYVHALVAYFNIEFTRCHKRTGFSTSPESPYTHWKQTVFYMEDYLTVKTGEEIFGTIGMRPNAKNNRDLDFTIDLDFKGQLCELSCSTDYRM
T1 sequence (Q96KQ7 913-1193): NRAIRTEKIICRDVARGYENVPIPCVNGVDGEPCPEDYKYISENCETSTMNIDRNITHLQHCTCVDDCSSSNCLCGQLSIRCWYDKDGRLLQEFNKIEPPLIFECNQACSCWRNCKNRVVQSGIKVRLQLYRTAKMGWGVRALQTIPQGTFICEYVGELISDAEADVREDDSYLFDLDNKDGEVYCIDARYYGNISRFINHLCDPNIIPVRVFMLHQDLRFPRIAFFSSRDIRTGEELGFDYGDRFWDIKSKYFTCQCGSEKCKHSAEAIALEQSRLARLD
T10 sequence (Q9NRG4 whole entry, the tested form may be a part): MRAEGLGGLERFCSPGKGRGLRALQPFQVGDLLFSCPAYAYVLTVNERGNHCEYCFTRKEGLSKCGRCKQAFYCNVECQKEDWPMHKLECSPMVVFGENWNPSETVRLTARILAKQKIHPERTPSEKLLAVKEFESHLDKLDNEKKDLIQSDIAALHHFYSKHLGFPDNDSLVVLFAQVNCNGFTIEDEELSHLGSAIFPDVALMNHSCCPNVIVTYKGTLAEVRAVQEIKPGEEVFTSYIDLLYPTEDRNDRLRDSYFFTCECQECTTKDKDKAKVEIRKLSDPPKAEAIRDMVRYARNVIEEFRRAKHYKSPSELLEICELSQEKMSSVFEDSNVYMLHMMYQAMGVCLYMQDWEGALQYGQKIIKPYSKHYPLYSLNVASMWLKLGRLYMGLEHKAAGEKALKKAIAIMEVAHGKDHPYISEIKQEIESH
T7 sequence (O60678 211-531): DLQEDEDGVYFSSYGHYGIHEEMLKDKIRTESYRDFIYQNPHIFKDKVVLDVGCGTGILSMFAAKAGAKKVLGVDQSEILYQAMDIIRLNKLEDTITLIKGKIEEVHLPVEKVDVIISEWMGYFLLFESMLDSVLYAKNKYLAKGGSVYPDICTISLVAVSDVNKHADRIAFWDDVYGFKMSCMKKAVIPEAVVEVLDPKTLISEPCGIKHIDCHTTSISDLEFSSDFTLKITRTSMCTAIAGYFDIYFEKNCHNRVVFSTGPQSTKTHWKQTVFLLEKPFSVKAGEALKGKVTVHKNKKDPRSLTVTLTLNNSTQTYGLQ

SMILES | IC50 [1] [µM] | IC50 [2] [µM] | IC50 [3] [µM] | IC50 [4] [µM] | IC50 [5] [µM] | IC50 [6] [µM] | IC50 [7] [µM] | IC50 [8] [µM] | IC50 [10] [µM] | IC50 [9] [µM] | selectivity for CARM1 inhibition [9] | IC50 ([9]; 300 nM enzyme, H3 (1-40 aa) peptide, 7 h, read-out: IC50 CARM1) [µM] | inhibiting histone methyltransferase [11]
CCCN[C@@H](CC[C@H](N)C(=O)O)C[C@H]1O[C@@H](n2cnc3c(N)ncnc32)[C@H](O)[C@@H]1O [Compound 102] | > 100 | > 100 | 2.2 | > 100 | 0.8 | 9.5 | ~100 | 9.8 | 0.5 |  |  | 3 | showed activity in inhibiting histone methyltransferase
CCCN[C@@H](CC[C@H](N)C(=O)OC)C[C@H]1O[C@@H](n2ccc3c(N)ncnc32)C(O)C1O (stereo partly drawn) [Compound 116e] | > 100 | > 100 | 10.3 | > 100 | ~100 | > 100 | 9.7 | > 100 | 9 | 42 |  |  | 
Nc1ncnc2c1ncn2[C@@H]1O[C@H](C[C@H](CC[C@H](N)C(=O)O)CNCc2ccccc2)[C@H](O)C1O (stereo partly drawn) [Compound 202] | > 100 | > 100 | > 100 | > 100 | 10.8 | 15.2 | 3.4 | 10.1 | 1.6 | 0.09 | apparent selectivity |  | 

Second part, led by results:

IC50 [1] [µM] | IC50 [2] [µM] | IC50 [3] [µM] | IC50 [4] [µM] | IC50 [5] [µM] | IC50 [6] [µM] | IC50 [7] [µM] | IC50 [8] [µM] | IC50 [10] [µM] | IC50 [9] [µM] | selectivity for CARM1 inhibition [9] | SMILES | IC50 ([9]; 300 nM enzyme, H3 (1-40 aa) peptide, 7 h, read-out: IC50 CARM1) [µM] | inhibiting histone methyltransferase [11]
> 100 | > 100 | > 100 | > 100 | 46.5 | > 100 | 33 | > 100 | > 100 | ~80 |  | NC(=O)C(N)CCC(CC1OC(n2cnc3c(N)ncnc32)C(O)C1O)NCc1ccccc1 (stereo not drawn) [Compound 111] |  | 
> 100 | > 100 | 27.6 | > 100 | 136 | 2.5 | 13.1 | 24.5 | < 0.2 | 0.1 | apparent selectivity | NC[C@@H](CC[C@H](N)C(=O)O)C[C@H]1O[C@@H](n2cnc3c(N)ncnc32)C(O)[C@H]1O (stereo partly drawn) [Compound 201] |  | 
~100 | ~100 | ~70 | ~70 | 21.2 | 18.7 | 9.9 | 35.1 | 37 | 4.4 |  | Nc1ncnc2c1ncn2C1OC(CC(N)CCCC(N)C(=O)O)C(O)C1O (stereo not drawn) [Compound 300] |  | 

From patent US9493501B2, “Methyltransferase inhibitors for treating cancer” (MEMORIAL SLOAN-KETTERING CANCER CENTER, priority 2011, dated 2016)
